Assay results: US7994331B2, “Heterocycle-substituted benzimidazole derivative” (MSD K.K., priority 2005, dated 2011)

Molecular target: T1, recombinant human liver GK (FLAG fusion protein) (Homo sapiens, UniProt P35557)
T1 construct: made in house; host or cells: E. coli
T1 sequence (P35557 1-466 isoform P35557-2): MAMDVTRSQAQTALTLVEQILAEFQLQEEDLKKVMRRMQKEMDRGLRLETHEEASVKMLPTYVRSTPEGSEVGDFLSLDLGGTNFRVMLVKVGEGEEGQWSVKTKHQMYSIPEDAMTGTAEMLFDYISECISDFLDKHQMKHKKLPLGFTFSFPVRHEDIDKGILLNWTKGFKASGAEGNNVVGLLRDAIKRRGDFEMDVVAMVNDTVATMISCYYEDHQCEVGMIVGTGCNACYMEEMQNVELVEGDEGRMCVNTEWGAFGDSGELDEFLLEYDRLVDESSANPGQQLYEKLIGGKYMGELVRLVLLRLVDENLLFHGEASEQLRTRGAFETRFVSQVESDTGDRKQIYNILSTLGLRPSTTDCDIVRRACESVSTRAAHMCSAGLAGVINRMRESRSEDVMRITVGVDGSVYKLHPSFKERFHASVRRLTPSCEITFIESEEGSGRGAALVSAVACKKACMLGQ
Assay: Glucokinase (GK) activation assay, G6PDH-coupled Thio-NADH absorbance at 405 nm
Assay type: biochemical
Settings: final glucose concentration 2.5 mM, 30° C.; for EC50: GK activation; for Emax: OD level of DMSO control set as 100%
Description: The excellent glucokinase-activating effect of the compounds of formula (I) may be determined by a method described in references (for example, Diabetes, Vol. 45, pp. 1671-1677, 1996), or in accordance with it.
The glucokinase activity may be determined not by directly measuring glucose-6-phosphate but by measuring the level of Thio-NADH, which is produced when a reporter enzyme, glucose-6-phosphate dehydrogenase produces phosphogluconolactone from glucose-6-phosphate, and based on the level, the level of glucokinase activation may be determined.
In this assay, used was a recombinant human liver GK, which was expressed by E. coli as a FLAG fusion protein therein and was purified by ANTIFLAG M2 AFFINITY GEL (Sigma).
Using a flat-bottomed 96-well plate, the assay was carried out at 30° C. 69 μl of an assay buffer (25 mM Hepes Buffer/pH=7.2, 2 mM MgCl2, 1 mM ATP, 0.5 mM TNAD, 1 mM dithiothreitol) was put into the plate, and 1 μl of a DMSO solution of the compound or DMSO alone as a control was added thereto. Next, 20 μl of an enzyme mixture (FLAG-GK, 20 U/ml G6PDH) cooled in ice was added to it, and 10 μl of a substrate, 25 mM glucose was added to it, and the reaction was initiated (final glucose concentration=2.5 mM).
After the start of the reaction, the increase in the absorbance at 405 nm was measured for 12 minutes at intervals of 30 seconds, and the increase for the first 5 minutes was used for evaluating the compound tested. FLAG-GK was added so that the absorbance increase after 5 minutes in the presence of 1% DMSO could be from 0.04 to 0.06.
The OD level of the DMSO control was set as 100%; and the OD level of the test compound at different concentrations was determined. From the OD level at each concentration, Emax (%) and EC50 (μM) were computed and used as the index of the GK-activating potency of the compound.

| Structure (SMILES) | EC50 | Emax |
| --- | --- | --- |
| CCS(=O)(=O)c1ccc(Oc2cc3[nH]c(-c4ccccn4)nc3cc2C2OCCO2)cc1 [Example 1, 5-(1,3-dioxolan-2-yl)-6-(4-(ethylsulfonyl)phenoxy)-2-pyridin-2-yl-1H-benzimidazole] | 1180 nM | 923% |
| Cc1nc(-c2ccc(Oc3cc4[nH]c(-c5ccccn5)nc4cc3C3CCCO3)cn2)no1 (centres unmarked) [Example 17, 5-(tetrahydrofuran-2-yl)-6-(6-(5-methyl-(1,2,4)oxadiazol-3-yl)-pyridin-3-yloxy)-2-pyridin-2-yl-1H-benzimidazole] | 1400 nM | – |
| CCS(=O)(=O)c1ccc(Oc2cc3[nH]c(-c4cnccn4)nc3cc2C2CCC(=O)O2)cc1 (centres unmarked) [Example 23, 5-(6-(4-(ethylsulfonyl)phenoxy)-2-pyrazin-2-yl-1H-benzimidazol-5-yl)dihydrofuran-2(3H)-one] | 1420 nM | – |
| CCS(=O)(=O)c1ccc(Oc2cc3[nH]c(-c4ccccn4)nc3cc2C2OC(=O)N(C)C2=O)cc1 (centres unmarked) [Example 31, 5-(6-(4-(ethylsulfonyl)phenoxy)-2-pyridin-2-yl-1H-benzimidazol-5-yl)-3-methyl-1,3-oxazolidine-2,4-dione] | 1580 nM | – |

Next, values leading:

| EC50 | Emax | Structure (SMILES) |
| --- | --- | --- |
| 600 nM | – | CCS(=O)(=O)c1ccc(Oc2cc3[nH]c(-c4ccccn4)nc3cc2C2CCCS2)cc1 (centres unmarked) [Example 29-1, 5-(tetrahydro-2-thienyl)-6-(4-(ethylsulfonyl)phenoxy)-2-pyridin-2-yl-1H-benzimidazole] |
| 880 nM | 978% | CCS(=O)(=O)c1ccc(Oc2cc3[nH]c(-c4ccccn4)nc3cc2C2CCOC2=O)cc1 (centres unmarked) [Example 36, 3-(6-(4-(ethylsulfonyl)phenoxy)-2-pyridin-2-yl-1H-benzimidazol-5-yl)dihydrofuran-2(3H)-one] |
